# Source: ChEMBL document CHEMBL1201862, “PubChem BioAssay data set” (2004)
# Calls of active or inactive are those of the source. The rule behind the calls is not given here.
# What was measured:
# [1] = target: Serine/threonine-protein kinase pim-1 (Homo sapiens, UniProt P11309); format: functional
# [2] = target: Ribosomal protein S6 kinase beta-1 (Homo sapiens, UniProt P23443); format: functional;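 note: measured as one member of a kinome-wide profiling panel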
# [3] = target: Calcium/calmodulin-dependent protein kinase type 1 (Homo sapiens, UniProt Q14012); format: functional
# [4] = target: cAMP-dependent protein kinase catalytic subunit PRKX (Homo sapiens, UniProt P51817); format: functional
# [5] = target: T1, Exodeoxyribonuclease V (Escherichia coli (strain K12), UniProt P04993+P07648+P08394); experiment: RecBCD inhibition via phage-restricted bacterial growth – absorbance, V66 E. coli, mutant T4 phage, counter-screen for AddAB inhibitor project, dose response (AID 492957); format: functional, cell-based, Escherichia coli str. K-12 substr. MG1655
# T1 sequence (P04993 whole entry): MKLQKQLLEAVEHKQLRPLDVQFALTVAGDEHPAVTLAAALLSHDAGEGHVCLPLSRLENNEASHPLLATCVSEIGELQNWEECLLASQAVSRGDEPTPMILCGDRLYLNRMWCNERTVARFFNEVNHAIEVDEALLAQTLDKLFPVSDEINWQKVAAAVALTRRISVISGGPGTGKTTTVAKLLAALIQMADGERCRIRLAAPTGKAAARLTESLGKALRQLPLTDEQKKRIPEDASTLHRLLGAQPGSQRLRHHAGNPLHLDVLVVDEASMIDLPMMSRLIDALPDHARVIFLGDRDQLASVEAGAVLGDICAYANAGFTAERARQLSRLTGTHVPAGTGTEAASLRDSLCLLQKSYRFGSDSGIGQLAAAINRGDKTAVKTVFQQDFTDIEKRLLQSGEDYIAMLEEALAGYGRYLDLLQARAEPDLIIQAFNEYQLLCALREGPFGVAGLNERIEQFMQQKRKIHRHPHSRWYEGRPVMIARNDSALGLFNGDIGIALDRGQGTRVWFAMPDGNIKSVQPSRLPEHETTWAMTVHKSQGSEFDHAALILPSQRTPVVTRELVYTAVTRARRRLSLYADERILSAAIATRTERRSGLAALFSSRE
# T1 sequence (P07648 whole entry): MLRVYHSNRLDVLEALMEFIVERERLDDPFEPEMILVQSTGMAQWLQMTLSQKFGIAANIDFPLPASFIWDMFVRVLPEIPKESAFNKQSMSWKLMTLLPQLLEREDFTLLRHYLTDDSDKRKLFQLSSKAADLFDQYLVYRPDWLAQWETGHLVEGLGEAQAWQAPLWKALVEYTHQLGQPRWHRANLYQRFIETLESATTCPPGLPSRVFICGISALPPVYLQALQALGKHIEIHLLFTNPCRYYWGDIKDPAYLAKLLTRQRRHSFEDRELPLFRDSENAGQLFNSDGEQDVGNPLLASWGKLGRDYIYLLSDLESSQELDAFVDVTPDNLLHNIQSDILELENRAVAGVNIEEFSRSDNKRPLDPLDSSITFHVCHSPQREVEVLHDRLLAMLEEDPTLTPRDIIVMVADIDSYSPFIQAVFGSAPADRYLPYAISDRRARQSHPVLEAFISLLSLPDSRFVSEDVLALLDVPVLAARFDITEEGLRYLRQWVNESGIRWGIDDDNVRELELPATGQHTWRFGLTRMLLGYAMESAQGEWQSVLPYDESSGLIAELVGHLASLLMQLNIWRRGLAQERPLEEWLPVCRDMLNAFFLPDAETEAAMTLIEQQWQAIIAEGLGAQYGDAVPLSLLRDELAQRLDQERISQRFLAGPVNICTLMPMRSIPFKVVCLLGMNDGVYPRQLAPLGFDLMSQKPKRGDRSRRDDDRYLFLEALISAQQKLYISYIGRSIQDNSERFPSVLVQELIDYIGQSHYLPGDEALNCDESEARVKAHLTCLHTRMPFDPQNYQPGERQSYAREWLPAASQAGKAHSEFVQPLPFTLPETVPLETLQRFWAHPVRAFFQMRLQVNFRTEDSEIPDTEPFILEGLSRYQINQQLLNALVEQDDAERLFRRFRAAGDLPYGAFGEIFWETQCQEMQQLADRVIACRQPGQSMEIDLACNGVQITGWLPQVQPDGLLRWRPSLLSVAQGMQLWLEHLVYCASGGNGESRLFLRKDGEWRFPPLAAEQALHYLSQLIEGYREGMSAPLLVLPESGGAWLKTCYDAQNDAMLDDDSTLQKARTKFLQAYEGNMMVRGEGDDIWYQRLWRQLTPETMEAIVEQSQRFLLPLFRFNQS
# T1 sequence (P08394 whole entry): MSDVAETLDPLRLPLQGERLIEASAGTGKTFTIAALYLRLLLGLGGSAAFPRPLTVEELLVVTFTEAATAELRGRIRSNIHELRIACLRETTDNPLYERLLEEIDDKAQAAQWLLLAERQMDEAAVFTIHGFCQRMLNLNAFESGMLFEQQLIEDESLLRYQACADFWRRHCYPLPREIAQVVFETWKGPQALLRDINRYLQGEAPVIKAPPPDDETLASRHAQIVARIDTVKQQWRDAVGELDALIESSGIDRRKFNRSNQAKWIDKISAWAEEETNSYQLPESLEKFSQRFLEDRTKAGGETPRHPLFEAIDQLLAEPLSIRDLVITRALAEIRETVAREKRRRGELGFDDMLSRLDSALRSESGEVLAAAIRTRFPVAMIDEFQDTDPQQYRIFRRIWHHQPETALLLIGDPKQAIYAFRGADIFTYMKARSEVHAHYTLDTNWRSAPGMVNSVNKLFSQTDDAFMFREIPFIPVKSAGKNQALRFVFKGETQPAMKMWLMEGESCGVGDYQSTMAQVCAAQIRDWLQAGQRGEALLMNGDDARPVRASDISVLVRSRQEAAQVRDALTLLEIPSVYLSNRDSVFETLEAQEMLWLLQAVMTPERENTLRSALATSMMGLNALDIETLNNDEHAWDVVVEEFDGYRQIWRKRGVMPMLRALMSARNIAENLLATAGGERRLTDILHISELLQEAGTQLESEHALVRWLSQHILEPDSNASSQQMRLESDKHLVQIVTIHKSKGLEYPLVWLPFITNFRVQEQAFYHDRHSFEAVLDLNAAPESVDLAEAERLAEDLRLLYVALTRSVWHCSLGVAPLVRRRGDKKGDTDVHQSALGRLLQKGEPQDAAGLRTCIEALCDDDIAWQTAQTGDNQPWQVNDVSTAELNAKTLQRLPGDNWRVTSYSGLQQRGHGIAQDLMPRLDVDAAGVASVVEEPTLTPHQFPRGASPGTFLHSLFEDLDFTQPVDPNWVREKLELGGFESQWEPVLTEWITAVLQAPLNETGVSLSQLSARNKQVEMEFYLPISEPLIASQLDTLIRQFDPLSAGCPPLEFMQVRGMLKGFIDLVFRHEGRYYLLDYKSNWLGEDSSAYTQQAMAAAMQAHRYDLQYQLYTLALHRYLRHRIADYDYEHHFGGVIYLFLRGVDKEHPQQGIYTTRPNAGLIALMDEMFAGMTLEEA
# Chain of cAMP-dependent protein kinase catalytic subunit PRKX (P51817 whole entry): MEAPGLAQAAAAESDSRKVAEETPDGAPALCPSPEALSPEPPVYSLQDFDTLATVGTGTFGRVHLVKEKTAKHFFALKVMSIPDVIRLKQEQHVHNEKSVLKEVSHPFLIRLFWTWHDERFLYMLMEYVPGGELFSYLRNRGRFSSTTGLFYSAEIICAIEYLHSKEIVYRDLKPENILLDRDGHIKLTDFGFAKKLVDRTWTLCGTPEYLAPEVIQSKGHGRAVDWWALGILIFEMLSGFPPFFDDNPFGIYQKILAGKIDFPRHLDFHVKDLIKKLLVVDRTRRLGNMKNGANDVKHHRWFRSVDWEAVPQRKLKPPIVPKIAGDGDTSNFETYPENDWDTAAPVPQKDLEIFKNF
# Chain of Ribosomal protein S6 kinase beta-1 (P23443 whole entry): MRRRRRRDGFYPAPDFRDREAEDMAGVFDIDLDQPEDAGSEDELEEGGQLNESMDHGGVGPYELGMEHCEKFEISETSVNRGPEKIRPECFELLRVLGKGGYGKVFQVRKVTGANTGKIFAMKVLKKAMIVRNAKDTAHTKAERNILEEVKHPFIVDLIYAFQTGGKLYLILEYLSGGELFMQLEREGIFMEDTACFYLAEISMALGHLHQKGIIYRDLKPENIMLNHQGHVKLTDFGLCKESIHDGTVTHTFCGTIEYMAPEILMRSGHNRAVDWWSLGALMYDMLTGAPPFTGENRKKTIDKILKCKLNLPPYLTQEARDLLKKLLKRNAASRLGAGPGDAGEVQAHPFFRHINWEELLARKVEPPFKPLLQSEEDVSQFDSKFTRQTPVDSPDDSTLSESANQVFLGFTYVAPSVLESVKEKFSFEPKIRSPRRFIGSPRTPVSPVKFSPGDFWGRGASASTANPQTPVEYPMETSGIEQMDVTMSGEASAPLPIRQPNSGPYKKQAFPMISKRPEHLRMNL
# Chain of Serine/threonine-protein kinase pim-1 (P11309 whole entry): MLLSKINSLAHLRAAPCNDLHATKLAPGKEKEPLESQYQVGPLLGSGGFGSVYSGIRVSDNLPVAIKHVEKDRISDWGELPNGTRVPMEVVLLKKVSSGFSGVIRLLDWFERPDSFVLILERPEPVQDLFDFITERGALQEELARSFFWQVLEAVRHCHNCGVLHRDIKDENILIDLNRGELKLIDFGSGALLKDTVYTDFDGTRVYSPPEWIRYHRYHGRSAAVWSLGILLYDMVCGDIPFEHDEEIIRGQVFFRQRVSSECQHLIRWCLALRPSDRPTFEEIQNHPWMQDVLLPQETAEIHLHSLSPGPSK
# Chain of Calcium/calmodulin-dependent protein kinase type 1 (Q14012 whole entry): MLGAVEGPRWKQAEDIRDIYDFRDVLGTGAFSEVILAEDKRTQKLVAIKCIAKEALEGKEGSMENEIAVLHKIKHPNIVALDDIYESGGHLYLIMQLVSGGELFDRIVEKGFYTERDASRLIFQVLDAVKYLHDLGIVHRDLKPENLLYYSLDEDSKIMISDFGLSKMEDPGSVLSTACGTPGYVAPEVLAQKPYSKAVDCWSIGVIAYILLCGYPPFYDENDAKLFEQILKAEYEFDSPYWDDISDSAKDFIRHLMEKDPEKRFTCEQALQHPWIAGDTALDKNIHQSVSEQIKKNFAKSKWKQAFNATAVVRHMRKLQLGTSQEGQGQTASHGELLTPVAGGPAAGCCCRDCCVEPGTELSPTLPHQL
Ki [1],Ki [2],Ki [3],Ki [4],SMILES,IC50 [5]
1 µM (active),0.251 µM (active),> 1.58 µM (inactive),0.398 µM (active),OC1CCC(Nc2cc(Cl)nc(-c3c[nH]c4ncccc34)n2)CC1 (stereo not given),–
–,–,–,–,COCC/N=c1\scc(-c2cccs2)n1/N=C/c1ccc(O)c(O)c1O,> 119 µM (inactive)
